Measurements: patent US5846720A, “Methods of determining chemicals that modulate expression of genes associated with cardiovascular disease” (Oncogene Science, Inc., priority 1996, dated 1998)
“Also recorded” adds a separate entry of the source. Read-outs that look alike come from different tables or passages of the source.

Assays:
G-CSF mRNA [1] = test: Northern blot of endogenous G-CSF mRNA; assay type: cell-based, human; conditions: U5637 cells, relative to DMSO
Experimental: (§1) Total cellular RNA was isolated from cells following incubation with chemicals as described above and electrophoresed in a 1% Agarose Formaldehyde gel. The RNA was transferred to Duralon-UV nylon filters (Stratagene, La Jolla, Calif.) using the manufacturer's recommended protocol. The filters were prehybridized for 4 hours (prehybridizing solution=5× SSC, 50 mM sodium pyrophosphate, 10× Denhardt's solution, 10% dextran sulfate, 7% SDS and 250 μg/ml denatured ssDNA) and then hybridized in the same solution for 16 hours at 65° C. in the presence of specific probes. The G-CSF probe was a 0.6 kb AflII to Xhol fragment which contained most of exon 5 of the human G-CSF gene. The β-actin (Oncor, Gaithersburg, Md.) probe was used as a control probe to normalize for the total amount of RNA. The probes were labeled with alpha-32P dCTP using a random primed DNA labeling kit (Amersham, Arlington, Ill.). Following hybridization, filters were washed three times at room temperature with 1× SSC, 0.13% SDS and three times at 65° C. with 0.2× SSC, 0.1% SDS. Filters were first probed with the G-CSF specific probe and then reprobed with β-actin-probe. Exposure to x-ray film was performed overnight. Bands were excised and counted in a liquid scintillation counter (LKB, Gaithersburg, Md.), and counts obtained with the G-CSF specific probe were normalized relative to the counts obtained with the β-Actin specific probe.
Also shown are the effects of the solvent, DMSO, used to dissolve the chemicals and a proteinaceous positive regulator, interferon-gamma.

G-CSF promoter [2] = test: G-CSF promoter/luciferase reporter assay (high-throughput screen I), G21 cells; conditions: for activation of the G-CSF promoter (dose response): G21 cells; for EC50: read-out: ED50 (concentration of chemical resulting in 50% maximal stimulation), G-CSF reporter cell line G21, range over the three chemicals; for G-CSF promoter induction: G21, 7 hours, serum-free
beta-actin mRNA = test: Northern blot of actin mRNA (control); assay type: cell-based, human; conditions: U5637 cells
Experimental: as §1, with “β-actin-probe. […]” for “β-actin-probe. Exposure to x-ray film was performed overnight.”, “probe. […]” for “probe.”

G-CSF mRNA [3] = test: S1 nuclease protection, G-CSF mRNA; assay type: cell-based, human; conditions: for amount of G-CSF mRNA (S1 nuclease protection): 5637 cells, 18 hours
Experimental: (§2) S1 Nuclease protection assays were carried out as described in reference 118.
(§3) To further confirm, that compounds that had been identified in a luciferase expression assay using a G-CSF specific reporter cell line would be active in inducing transcription of the endogenous G-CSF gene, cells from the parental cell line 5637 used to construct the reporter cell line were incubated with cycloheximide (25 ug/ml), DMSO (0.5%,solvent control) and low, medium and high concentrations of the compounds 542 (10, 50, 250 μM),1255 (20, 100, 500 uM), 1793(0.25, 1.2, 6.25 μM) and 1904 (20, 100 uM) for 18 hours. RNA was extracted and the concentration of G-CSF, GM-CSF and gamma-actin mRNA was determined by the S1 protection method as described in above. The positions of G-CSF GM-CSF and gamma-actin specific protected fragments are indicated (G, GM, A) at the left side of the gel (FIG. 37).

[4] = system: 5637 bladder carcinoma cells; test: G-CSF secretion, two-antibody sandwich immunoassay; assay type: cell-based, human; conditions: 48 hours, serum-containing media
Experimental: Supernatants from 5637 bladder carcinoma cells incubated with chemicals registering as positives in the G-CSF promoter/luciferase high throughput assay were assayed for secreted G-CSF protein using the two-antibody sandwich immunoassay (83). The G-CSF Assay kit manufactured by Oncogene Science, Inc. was used and the manufacturer's instructions were followed.
The levels of G-CSF in the cell supernatants were determined by a sandwich-antibody assay as described in above (FIG. 42).

GM-CSF mRNA = test: S1 nuclease protection, GM-CSF mRNA; assay type: cell-based, human; conditions: 5637 cells, 18 hours
Experimental: as §2, §3

hGH promoter = test: hGH promoter/luciferase reporter assay (high-throughput screen I), 532 cells; assay type: cell-based, rat; conditions: transcriptional activators, Table 2; 6 h incubation
Text: 6. a GC rat pituitary cell line, transfected with the growth hormone reporter plasmid, designated 532, deposited under ATCC Accession No. CRL 10663.

MMTV promoter = test: MMTV promoter/luciferase reporter assay (high-throughput screen I, control for specificity), M10 cells; assay type: cell-based, mouse; conditions: transcriptional activators, Table 2; original high-throughput assay; 6 h incubation
GM-CSF promoter = test: GM-CSF promoter/luciferase induction by known inducers, GM1073, GM1088, GM1105; assay type: cell-based, human
Experimental: 6 clones generated by electroporation of U5637 cells with pGMLL103 NEO3 (FIG. 26) were subjected to further analysis as described above for G-CSF: --GM1073 (10 μg; circular); GM1081, GM1088 and GM1090 (5 μg; linear); and GM1098 and GM1105 (10 μg; linear). Clone GM1073 was selected for use in the high throughput screen.
(§4) Promoter induction experiments were also conducted with the GM-CSF reporter cell lines GM1073, GM1088 and GM1105, which were all shown to contain correctly inserted constructs (see above). […] Luciferase expression of clones GM1088 and GM1105 was induced by PMA 2.8 fold and 2 fold, respectively, while TNF-alpha induced both clones 2 fold. All three M-CSF clones responded to a 16-hour incubation with 2,000 units/ml Interferon-gamma by a 20-fold increase of luciferase expression from the M-CSF promoter.

G-CSF promoter [5] = test: G-CSF promoter/luciferase induction by known inducers, clone G1002; assay type: cell-based, human; conditions: for fold induction at 0.02 µg/mL: Homo sapiens, read-out: G-CSF promoter induction
Experimental: U5637 bladder carcinoma cells were transfected with pGVU150 (FIG. 21) or pGVU140 plus pTKNeo3 either by electroporation using a BRL (Gaithersburg, Md.) Cellporator electroporation device or by lipofection using BRL lipofectin and following the manufacturer's protocol. Clones were analyzed for luciferase expression and those testing positive expanded further and frozen in liquid nitrogen. Further analysis of 6 clones (G1002, G2005, G2071, G2085, G3014, G3031) included Southern blotting, reaction to known inducers, satisfactory attachment to microtiter plates and acceptable standard deviation in multiple luciferase expression assays. Clone G1002 was selected for use in the high throughput screen.
Cell clones with correctly integrated promoter/reporter constructs were analyzed for correct reaction to known transcriptional inducers. […] Both TNF-alpha and PMA induction levels of clone G1002 were influenced by the presence or absence of epidermal growth factor (EGF). […] The 9.3 fold induction by PMA in the absence of EGF was reduced to 5.6 fold by including EGF in the serum-free incubation mixture. Similar differences were observed, when EGF was substituted by 10% fetal calf serum.

[6] = in vivo; cited from earlier work
HMGCoA reductase = conditions: animals, high doses; cited from earlier work
[7] = cited from earlier work; for decrease in serum cholesterol levels: compared with HMGCoA reductase inhibitors like lovastatin
M-CSF promoter = test: M-CSF (CSF-1) promoter/luciferase induction, M2071, M2085, M2086; assay type: cell-based, human; conditions: 2,000 units/ml, 16 hours, all three M-CSF clones
Experimental: Human promyelocytic leukemia HL-60 cells are known to express CSF-1 (74). They were transfected with linearized pCSF1-102 (FIG. 21) and linearized PTKneo3 using electroporation as described above. Three neomycin resistant clones were generated: --M2071, M2085 and M2086. All three responded to a 16 hour incubation with 2000 units/ml interferon-gamma by a 20-fold increase of luciferase expression. M2086 was selected for use in the high throughput screen. The WI-38 human fibroblast cell line is also capable of producing CSF-1. Stable transfectants are also prepared from these for screening in a different cellular background. There is evidence for tissue-specific modulation of CSF-1 gene expression, and since the major source of the CSF-1 which stimulates the growth of macrophages at atherosclerotic plaques is unknown, screening with more than one cell line may be useful.
as §4

[8] = G1002, 7 hours, serum-free, absence of EGF

## CN(C)c1ccc(C(=C2C=CC(=[N+](C)C)C=C2)c2ccc([N+](C)(C)C)cc2)cc1 [#670]
G-CSF mRNA [1]
  effect on endogenous G-CSF mRNA (Northern blot): increased G-CSF mRNA production; also recorded: stimulated production of G-CSF mRNA
G-CSF promoter [2]
  activation of the G-CSF promoter (dose response): specifically activated the G-CSF promoter
  EC50: 5 to 70 µM
beta-actin mRNA
  effect on actin mRNA (Northern blot): not of actin mRNA

## Clc1cc(Cl)cc(Br)c1 [#1255]
G-CSF mRNA [3]
  amount of G-CSF mRNA (S1 nuclease protection): increased mRNA production
G-CSF mRNA [1]
  effect on endogenous G-CSF mRNA (Northern blot): increased G-CSF mRNA production; also recorded: stimulated production of G-CSF mRNA
beta-actin mRNA
  effect on actin mRNA (Northern blot): not of actin mRNA

## CN(C)c1ccc(C(=C2C=CC(=[N+](C)C)C=C2)c2ccc(N(C)C)cc2)cc1 [#1780]
G-CSF mRNA [3]; method not stated at the place
  levels of endogenous G-CSF mRNA: stimulate levels of endogenous G-CSF mRNA
G-CSF promoter [2]; 48 independent luciferase assays, same day
  scored as positive in repeat assays (G-CSF): scored as positives in every single one of these assays
G-CSF promoter [2]
  activation of the G-CSF promoter (dose response): specifically activated the G-CSF promoter
  EC50: 5 to 70 µM
[4]
  G-CSF secretion: increased G-CSF secretion

## CN(C)C(=S)SCC#N [#1793]
G-CSF mRNA [3]
  amount of G-CSF mRNA (S1 nuclease protection): increased mRNA production
GM-CSF mRNA
  amount of GM-CSF mRNA (S1 nuclease protection): increased the amount of GM-CSF mRNA

## Nc1c2ccccc2nc2ccccc12 [#1904]
G-CSF mRNA [3]
  amount of G-CSF mRNA (S1 nuclease protection): increased mRNA production

## O=NN(O)c1ccccc1 [Chemical #1783, Cupferron]
hGH promoter
  hGH fold induction relative to solvent control: 0.32 fold
G-CSF promoter [2]; transcriptional activators, Table 2, 6 h incubation
  GCSF fold induction relative to solvent control: 6.55 fold
MMTV promoter
  MMTV fold induction relative to solvent control: 0.89 fold

## CCCCCCCCCCCCCC(=O)O[C@@H]1[C@@H](C)[C@@]2(O)[C@@H](C=C(CO)C[C@]3(O)C(=O)C(C)=C[C@@H]23)[C@@H]2C(C)(C)[C@]12OC(C)=O [PMA, phorbol-myristate-acetate, reference compound]
G-CSF promoter [2]; absence of EGF
  G-CSF promoter induction: 34.6 fold
G-CSF promoter [2]; presence of EGF
  G-CSF promoter induction: 24.6 fold
GM-CSF promoter; GM1073, serum-free media
  GM-CSF promoter induction: 7.5 fold
GM-CSF promoter; Homo sapiens, GM1073, 20 ng/ml, 10.5 hours, serum-containing media
  fold induction at 0.02 µg/mL: 3.4
GM-CSF promoter; clone GM1088
  GM-CSF promoter induction: 2.8 fold
GM-CSF promoter; clone GM1105
  GM-CSF promoter induction: 2 fold
G-CSF promoter [5]; [8]
  G-CSF promoter induction: 9.3 fold
G-CSF promoter [5]; 7 h
  fold induction at 0.02 µg/mL: 5.6
G-CSF promoter [5]; 10.5 h
  fold induction at 0.02 µg/mL: 4.4

## CC[C@H](C)C(=O)O[C@H]1C[C@@H](C)C=C2C=C[C@H](C)[C@H](CC[C@@H]3C[C@@H](O)CC(=O)O3)[C@H]21 [lovastatin]
[6]
  most frequently reported side effects: Gastrointestinal disturbances, including flatulence, diarrhea, constipation and nausea

## CC[C@H](C)C(=O)O[C@H]1C[C@@H](C)C=C2C=C[C@H](C)[C@H](CC[C@@H]3C[C@@H](O)CC(=O)O3)[C@H]21 [mevinolin]
HMGCoA reductase
  HMGCoA reductase levels: increased levels of HMGCoA reductase

## GM-CSF: colony-stimulating factor GM-CSF
[7]
  decrease in serum cholesterol levels: profound decreases in serum cholesterol levels
[7]; in vivo
  average decrease in serum cholesterol: 37%

## Interferon-gamma: a proteinaceous positive regulator, interferon-gamma
M-CSF promoter
  increase of luciferase expression from the M-CSF promoter: 20 fold
G-CSF mRNA [1]
  effect on endogenous G-CSF mRNA (Northern blot): increased G-CSF mRNA production

## Interleukin-1 beta: Interleukin-1 beta, known transcriptional inducer
G-CSF promoter [5]; G1002, 0.5 ng/ml, 10.5 hours, serum-containing media
  G-CSF promoter induction: 2.6 fold

## TNF-alpha
G-CSF promoter [2]; absence of EGF
  G-CSF promoter induction: 2.1 fold
G-CSF promoter [2]; presence of EGF
  G-CSF promoter induction: 2.8 fold
GM-CSF promoter; clone GM1088
  GM-CSF promoter induction: 2 fold
GM-CSF promoter; clone GM1105
  GM-CSF promoter induction: 2 fold
[4]
  G-CSF secretion: increased G-CSF secretion
G-CSF promoter [5]; G1002, 8.3 ng/ml, 10.5 hours, serum-containing media
  G-CSF promoter induction: 2 fold
G-CSF promoter [5]; G1002, 7 hours, serum-free defined media with 20 ng/ml EGF
  G-CSF promoter induction: 3 fold
G-CSF promoter [5]; [8]
  G-CSF promoter induction: 4 fold

B1: CSF-1: colony-stimulating factor-1 (protein, UniProt P09603 33-554, looked up)
Macrophage colony-stimulating …: EEVSEYCSHMIGSGHLQSLQRLIDSQMETSCQITFEFVDQEQLKDPVCYLKKAFLLVQDIMEDTMRFRDNTPNAIAIVQLQELSLRLKSCFTKDYEEHDKACVRTFYETPLQLLEKVKNVFNETKNLLDKDWNIFSKNCNNSFAECSSQDVVTKPDCNCLYPKAIPSSDPASVSPHQPLAPSMAPVAGLTWEDSEGTEGSSLLPGEQPLHTVDPGSAKQRPPRSTCQSFEPPETPVVKDSTIGGSPQPRPSVGAFNPGMEDILDSAMGTNWVPEEASGEASEIPVPQGTELSPSRPGGGSMQTEPARPSNFLSASSPLPASAKGQQPADVTGTALPRVGPVRPTGQDWNHTPQKTDHPSALLRDPPEPGSPRISSLRPQGLSNPSTLSAQPQLSRSHSSGSVLPLGELEGRRSTRDRRSPAEPEGGPASEGAARPLPRFNSVPLTDTGHERQSEGSFSPQLQESVFHLLVPSVILVLLAVGGLLFYRWRRRSHQEPQRADSPLEQPEGSPLTQDDRQVELPV
[7]
  decrease in serum cholesterol levels: profound decreases in serum cholesterol levels
